{"source": "ChEMBL document CHEMBL1201862", "about": "“PubChem BioAssay data set” (2004)", "key": {"[1]": {"experiment": "cytotoxicity toward DRD oncogenic fibroblasts, dose response, cell-based, non-viral oncogenic, luminescence (AID 1934)", "type": "functional", "conditions": "Homo sapiens"}, "[2]": {"target": "T1, RNA-binding protein pos-1 (Caenorhabditis elegans, UniProt G5EF15)", "T1 sequence (G5EF15 whole entry)": "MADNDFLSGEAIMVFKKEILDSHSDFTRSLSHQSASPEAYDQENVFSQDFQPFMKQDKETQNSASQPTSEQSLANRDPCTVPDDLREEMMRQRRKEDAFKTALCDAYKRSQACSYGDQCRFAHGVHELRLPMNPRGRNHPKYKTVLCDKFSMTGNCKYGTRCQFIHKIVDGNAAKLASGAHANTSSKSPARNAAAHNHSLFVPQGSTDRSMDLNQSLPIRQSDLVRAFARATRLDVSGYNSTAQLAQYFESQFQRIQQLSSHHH", "experiment": "inhibitors of POS-1/mex-3 RNA binding, dose response, biochemical, fluorescence polarization (AID 1964);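 also: purified POS-1 fused to maltose binding protein made in E. coli; potency of compounds blocking POS-1 binding to fluorescent RNA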"}, "BJ [3]": {"system": "BJ", "experiment": "cells", "type": "functional, cell-based", "conditions": "Homo sapiens"}, "[4]": {"target": "ADP-ribosylation factor GTPase-activating protein 1 (Rattus norvegicus, UniProt Q62848)", "sequence (Q62848 whole entry)": "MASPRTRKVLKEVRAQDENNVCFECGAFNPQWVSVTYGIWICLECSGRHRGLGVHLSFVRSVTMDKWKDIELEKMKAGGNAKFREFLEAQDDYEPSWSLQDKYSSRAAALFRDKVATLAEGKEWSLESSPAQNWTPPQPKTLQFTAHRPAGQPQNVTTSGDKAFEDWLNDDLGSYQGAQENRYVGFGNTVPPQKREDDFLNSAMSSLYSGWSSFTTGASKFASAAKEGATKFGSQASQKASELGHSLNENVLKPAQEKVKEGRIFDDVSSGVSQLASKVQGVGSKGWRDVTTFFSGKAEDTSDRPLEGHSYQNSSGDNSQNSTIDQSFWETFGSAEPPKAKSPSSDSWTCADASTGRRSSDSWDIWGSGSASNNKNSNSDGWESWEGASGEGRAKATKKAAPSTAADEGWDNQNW", "experiment": "Fluorescence polarization-based biochemical high throughput dose response screening assay to identify inhibitors of ADP-ribosylation factor GTPase activating protein 1 (ARFGAP1).", "type": "functional"}, "[5]": {"target": "Neurotensin receptor type 1 (Homo sapiens, UniProt P30989)", "type": "functional"}, "BJ [6]": {"system": "BJ", "experiment": "cytotoxicity toward BJ-TERT fibroblasts, dose response, cell-based, RAS-independent, luminescence (AID 1933)", "type": "functional", "conditions": "Homo sapiens"}, "[7]": {"target": "T2, Zinc finger protein mex-5 (Caenorhabditis elegans, UniProt Q9XUB2)", "T2 sequence (Q9XUB2 whole entry)": "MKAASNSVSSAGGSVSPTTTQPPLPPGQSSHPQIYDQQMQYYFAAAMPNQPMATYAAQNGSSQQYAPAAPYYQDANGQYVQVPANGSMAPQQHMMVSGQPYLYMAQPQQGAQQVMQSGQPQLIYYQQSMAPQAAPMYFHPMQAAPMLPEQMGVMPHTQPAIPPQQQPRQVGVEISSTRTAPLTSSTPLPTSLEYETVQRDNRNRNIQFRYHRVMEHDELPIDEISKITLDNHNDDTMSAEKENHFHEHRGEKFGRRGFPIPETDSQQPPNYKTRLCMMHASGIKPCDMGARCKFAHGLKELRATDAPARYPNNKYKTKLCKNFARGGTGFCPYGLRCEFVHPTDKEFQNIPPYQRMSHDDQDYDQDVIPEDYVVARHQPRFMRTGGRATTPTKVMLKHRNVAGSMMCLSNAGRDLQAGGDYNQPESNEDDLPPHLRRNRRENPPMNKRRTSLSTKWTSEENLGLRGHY", "experiment": "MEX-5/TCR-2 RNA interaction inhibitors, dose response, biochemical, C. elegans, fluorescence polarization (AID 1960)"}, "BJ [8]": {"system": "BJ", "experiment": "cytotoxicity toward BJ-TERT-LT-ST fibroblasts, dose response, cell-based, RAS-independent, luminescence (AID 1935);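 also: BJ fibroblasts immortalized with TERT plus LT and ST oncogenes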", "type": "functional", "conditions": "Homo sapiens"}, "[9]": {"target": "Hepatocyte nuclear factor 4-alpha (Homo sapiens, UniProt P41235)", "sequence (P41235 whole entry)": "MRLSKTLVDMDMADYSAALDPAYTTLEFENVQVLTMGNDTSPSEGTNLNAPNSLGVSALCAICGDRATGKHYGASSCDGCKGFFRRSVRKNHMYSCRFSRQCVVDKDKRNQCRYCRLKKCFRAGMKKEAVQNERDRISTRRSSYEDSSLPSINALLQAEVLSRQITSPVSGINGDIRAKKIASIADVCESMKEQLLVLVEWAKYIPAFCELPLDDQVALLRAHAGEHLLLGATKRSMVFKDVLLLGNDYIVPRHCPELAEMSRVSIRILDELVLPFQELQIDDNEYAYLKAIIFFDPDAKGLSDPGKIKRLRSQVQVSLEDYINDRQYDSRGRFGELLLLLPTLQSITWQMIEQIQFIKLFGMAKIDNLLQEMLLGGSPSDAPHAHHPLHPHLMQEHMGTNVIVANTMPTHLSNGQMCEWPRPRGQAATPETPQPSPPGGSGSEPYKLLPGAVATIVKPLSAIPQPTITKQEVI", "type": "functional, cell-based"}, "[10]": {"target": "COUP transcription factor 2 (Homo sapiens, UniProt P24468)", "sequence (P24468 whole entry)": "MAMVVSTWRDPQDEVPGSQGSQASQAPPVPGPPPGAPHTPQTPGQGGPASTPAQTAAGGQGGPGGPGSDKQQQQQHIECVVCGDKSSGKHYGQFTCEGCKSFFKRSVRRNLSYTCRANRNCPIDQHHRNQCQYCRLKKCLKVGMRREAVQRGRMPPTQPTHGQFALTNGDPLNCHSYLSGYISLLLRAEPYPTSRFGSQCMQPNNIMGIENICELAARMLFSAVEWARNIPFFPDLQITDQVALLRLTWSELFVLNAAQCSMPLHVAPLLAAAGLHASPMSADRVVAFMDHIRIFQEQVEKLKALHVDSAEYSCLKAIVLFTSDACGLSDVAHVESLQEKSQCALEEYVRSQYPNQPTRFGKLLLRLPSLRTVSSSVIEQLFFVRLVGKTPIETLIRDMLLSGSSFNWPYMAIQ", "experiment": "Luminescence-based cell-based high throughput dose response assay to identify inhibitors of COUP-TFII (NR2F2).", "type": "functional"}, "HEK293": {"system": "HEK293", "experiment": "inhibitors of LMP1-driven NF-kB reporter, dose response, cell-based, HEK293, luciferase, cherry-pick (AID 588343)", "type": "functional", "conditions": "Homo sapiens"}, "Protein Wnt-3a": {"target": "Protein Wnt-3a (Mus musculus, UniProt P27467)", "sequence (P27467 whole entry)": "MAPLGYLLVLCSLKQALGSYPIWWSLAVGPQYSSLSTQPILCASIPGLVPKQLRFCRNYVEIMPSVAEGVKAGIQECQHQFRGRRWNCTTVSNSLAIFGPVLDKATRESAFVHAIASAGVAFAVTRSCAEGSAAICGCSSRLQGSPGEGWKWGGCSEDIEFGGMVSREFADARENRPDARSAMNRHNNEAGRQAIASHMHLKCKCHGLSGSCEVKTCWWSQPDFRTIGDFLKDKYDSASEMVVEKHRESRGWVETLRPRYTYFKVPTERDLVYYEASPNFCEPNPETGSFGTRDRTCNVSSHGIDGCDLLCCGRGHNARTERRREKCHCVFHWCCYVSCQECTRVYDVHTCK", "experiment": "Wnt3a-driven reporter signaling inhibition, dose response, selectivity assay for Gli-SUFU antagonist project, Wnt-LIGHT cells, luminescence (AID 651570);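 also: Wnt-LIGHT reporter cells stimulated with conditioned medium from Wnt3a-producing cells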", "type": "functional", "conditions": "read-out: IC50_Mean"}, "Paired box protein Pax-8": {"target": "Paired box protein Pax-8 (Homo sapiens, UniProt Q06710)", "sequence (Q06710 whole entry)": "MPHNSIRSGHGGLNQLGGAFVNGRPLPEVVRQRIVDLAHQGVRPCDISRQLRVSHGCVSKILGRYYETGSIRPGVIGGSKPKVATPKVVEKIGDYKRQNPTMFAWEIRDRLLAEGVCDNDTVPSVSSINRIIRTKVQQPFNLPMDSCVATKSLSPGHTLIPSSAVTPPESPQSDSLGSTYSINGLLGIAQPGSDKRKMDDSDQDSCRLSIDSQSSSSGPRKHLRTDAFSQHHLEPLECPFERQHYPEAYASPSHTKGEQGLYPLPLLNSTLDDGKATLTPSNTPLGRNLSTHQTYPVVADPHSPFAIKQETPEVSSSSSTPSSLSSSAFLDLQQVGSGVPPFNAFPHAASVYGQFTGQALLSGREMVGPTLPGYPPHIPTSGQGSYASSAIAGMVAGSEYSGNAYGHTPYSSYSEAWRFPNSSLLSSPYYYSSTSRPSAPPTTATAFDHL", "experiment": "inhibitors of PAX8-driven TPO luciferase reporter, dose response, RMG-I cells, cherry-pick (AID 687027);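 also: luciferase reporter driven by Pax8 target thyroperoxidase promoter measured by SteadyGlo luminescence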", "type": "functional, cell-based"}, "Melanocortin receptor 4": {"target": "Melanocortin receptor 4 (Homo sapiens, UniProt P32245)", "sequence (P32245 whole entry)": "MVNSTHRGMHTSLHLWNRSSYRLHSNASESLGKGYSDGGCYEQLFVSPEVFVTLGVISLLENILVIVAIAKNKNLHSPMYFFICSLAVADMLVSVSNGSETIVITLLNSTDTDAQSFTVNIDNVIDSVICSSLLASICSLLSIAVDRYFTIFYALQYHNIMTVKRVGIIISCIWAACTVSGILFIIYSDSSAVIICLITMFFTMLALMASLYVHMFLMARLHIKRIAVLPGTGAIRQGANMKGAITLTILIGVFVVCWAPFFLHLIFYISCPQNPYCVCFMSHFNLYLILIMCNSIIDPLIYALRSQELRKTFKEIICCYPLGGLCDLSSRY", "type": "functional, cell-based"}, "[11]": {"target": "T3, DNA repair protein RAD52 homolog (Homo sapiens, UniProt P43351)", "T3 sequence (P43351 whole entry)": "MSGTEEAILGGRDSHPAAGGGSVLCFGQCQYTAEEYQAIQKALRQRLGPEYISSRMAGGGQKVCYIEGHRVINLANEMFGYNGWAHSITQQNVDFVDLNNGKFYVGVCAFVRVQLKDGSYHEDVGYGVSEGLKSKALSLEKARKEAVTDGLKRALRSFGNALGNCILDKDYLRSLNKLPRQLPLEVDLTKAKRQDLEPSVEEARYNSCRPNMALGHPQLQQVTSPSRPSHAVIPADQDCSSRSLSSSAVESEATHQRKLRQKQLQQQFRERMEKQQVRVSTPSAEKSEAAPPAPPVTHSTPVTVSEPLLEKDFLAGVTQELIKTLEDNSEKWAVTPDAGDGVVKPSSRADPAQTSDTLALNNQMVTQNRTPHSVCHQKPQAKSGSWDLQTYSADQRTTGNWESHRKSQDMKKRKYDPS", "type": "functional, biochemical"}, "[12]": {"target": "Photoreceptor-specific nuclear receptor (Homo sapiens, UniProt Q9Y5X4)", "sequence (Q9Y5X4 whole entry)": "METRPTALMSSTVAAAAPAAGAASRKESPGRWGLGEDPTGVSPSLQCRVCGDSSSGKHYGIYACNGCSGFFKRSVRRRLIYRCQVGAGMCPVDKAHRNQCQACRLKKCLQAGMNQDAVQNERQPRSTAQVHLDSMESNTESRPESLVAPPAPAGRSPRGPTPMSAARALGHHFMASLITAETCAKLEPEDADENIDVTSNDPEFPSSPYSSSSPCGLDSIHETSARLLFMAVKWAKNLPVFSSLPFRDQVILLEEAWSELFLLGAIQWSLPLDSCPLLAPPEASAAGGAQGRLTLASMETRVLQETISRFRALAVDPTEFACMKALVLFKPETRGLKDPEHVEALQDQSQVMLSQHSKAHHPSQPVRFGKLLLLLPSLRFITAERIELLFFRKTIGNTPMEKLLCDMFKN", "type": "functional, cell-based"}, "[13]": {"target": "T4, Sentrin-specific protease 1 (Homo sapiens, UniProt Q9P0U3)", "T4 sequence (Q9P0U3 whole entry, the tested form may be a part)": "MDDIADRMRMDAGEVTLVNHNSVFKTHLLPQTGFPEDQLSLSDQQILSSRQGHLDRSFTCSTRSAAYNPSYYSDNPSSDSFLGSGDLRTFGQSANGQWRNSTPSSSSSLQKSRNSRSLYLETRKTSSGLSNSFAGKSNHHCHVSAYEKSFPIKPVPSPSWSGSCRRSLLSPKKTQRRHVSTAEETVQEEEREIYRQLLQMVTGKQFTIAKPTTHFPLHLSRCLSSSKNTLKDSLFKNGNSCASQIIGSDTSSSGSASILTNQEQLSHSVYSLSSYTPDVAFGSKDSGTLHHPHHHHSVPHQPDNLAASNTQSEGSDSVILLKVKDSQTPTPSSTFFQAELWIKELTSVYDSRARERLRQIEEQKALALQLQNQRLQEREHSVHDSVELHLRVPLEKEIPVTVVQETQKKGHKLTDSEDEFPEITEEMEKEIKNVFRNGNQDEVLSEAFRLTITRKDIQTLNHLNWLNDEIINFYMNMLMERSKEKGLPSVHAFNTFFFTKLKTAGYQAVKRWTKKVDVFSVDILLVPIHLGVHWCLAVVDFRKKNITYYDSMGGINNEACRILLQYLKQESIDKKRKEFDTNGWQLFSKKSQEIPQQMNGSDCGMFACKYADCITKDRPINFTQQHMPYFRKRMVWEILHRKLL", "experiment": "Dose response confirmation of small molecule inhibitors of the catalytic domain of the SUMO protease, SENP1 in a FRET assay.", "type": "functional", "conditions": "read-out: IC50_Mean"}, "[14]": {"target": "T4, Sentrin-specific protease 1", "experiment": "potency of human SENP1 inhibitors, dose response, biochemical, kinetic FRET (AID 651697)", "type": "functional", "conditions": "read-out: IC50_Mean"}, "[15]": {"target": "DNA (cytosine-5)-methyltransferase 1 (Homo sapiens, UniProt P26358)", "experiment": "DNMT1 methyltransferase inhibitors, confirmation, biochemical, fluorescent molecular beacon (AID 602386)", "type": "functional"}, "[16]": {"target": "T5, Probable nicotinate-nucleotide adenylyltransferase (Staphylococcus aureus (strain N315), UniProt P65502)", "T5 sequence (P65502 whole entry)": "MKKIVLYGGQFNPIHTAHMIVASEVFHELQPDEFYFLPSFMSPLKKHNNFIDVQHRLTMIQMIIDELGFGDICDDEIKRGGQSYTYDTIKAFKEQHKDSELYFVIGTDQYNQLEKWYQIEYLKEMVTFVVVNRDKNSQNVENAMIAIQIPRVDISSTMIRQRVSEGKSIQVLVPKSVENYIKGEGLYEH", "type": "functional, Staphylococcus aureus subsp. aureus N315", "conditions": "read-out: IC50_Mean"}, "[17]": {"target": "T6, Carboxy-terminal domain RNA polymerase II polypeptide A small phosphatase 1 (Homo sapiens, UniProt Q9GZU7)", "T6 sequence (Q9GZU7 whole entry)": "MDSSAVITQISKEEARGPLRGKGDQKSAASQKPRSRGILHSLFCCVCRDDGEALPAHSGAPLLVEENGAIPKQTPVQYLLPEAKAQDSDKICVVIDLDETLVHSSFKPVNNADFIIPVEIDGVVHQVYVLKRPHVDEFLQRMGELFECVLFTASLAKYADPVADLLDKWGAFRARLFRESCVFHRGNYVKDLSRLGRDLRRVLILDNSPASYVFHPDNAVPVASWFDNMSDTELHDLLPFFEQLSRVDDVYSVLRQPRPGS", "experiment": "inhibitors of CTDSP1, concentration-response testing, biochemical assay, absorbance-based, actives from ultra-high-throughput screening (AID 540297)", "type": "functional"}, "[18]": {"target": "T5, Probable nicotinate-nucleotide adenylyltransferase", "type": "functional, Staphylococcus aureus subsp. aureus N315"}, "[19]": {"experiment": "microbe, parasite or virus in culture", "type": "functional", "conditions": "Mycobacterium tuberculosis"}, "[20]": {"target": "T7, Aryl hydrocarbon receptor (Homo sapiens, UniProt P35869)", "T7 sequence (P35869 whole entry)": "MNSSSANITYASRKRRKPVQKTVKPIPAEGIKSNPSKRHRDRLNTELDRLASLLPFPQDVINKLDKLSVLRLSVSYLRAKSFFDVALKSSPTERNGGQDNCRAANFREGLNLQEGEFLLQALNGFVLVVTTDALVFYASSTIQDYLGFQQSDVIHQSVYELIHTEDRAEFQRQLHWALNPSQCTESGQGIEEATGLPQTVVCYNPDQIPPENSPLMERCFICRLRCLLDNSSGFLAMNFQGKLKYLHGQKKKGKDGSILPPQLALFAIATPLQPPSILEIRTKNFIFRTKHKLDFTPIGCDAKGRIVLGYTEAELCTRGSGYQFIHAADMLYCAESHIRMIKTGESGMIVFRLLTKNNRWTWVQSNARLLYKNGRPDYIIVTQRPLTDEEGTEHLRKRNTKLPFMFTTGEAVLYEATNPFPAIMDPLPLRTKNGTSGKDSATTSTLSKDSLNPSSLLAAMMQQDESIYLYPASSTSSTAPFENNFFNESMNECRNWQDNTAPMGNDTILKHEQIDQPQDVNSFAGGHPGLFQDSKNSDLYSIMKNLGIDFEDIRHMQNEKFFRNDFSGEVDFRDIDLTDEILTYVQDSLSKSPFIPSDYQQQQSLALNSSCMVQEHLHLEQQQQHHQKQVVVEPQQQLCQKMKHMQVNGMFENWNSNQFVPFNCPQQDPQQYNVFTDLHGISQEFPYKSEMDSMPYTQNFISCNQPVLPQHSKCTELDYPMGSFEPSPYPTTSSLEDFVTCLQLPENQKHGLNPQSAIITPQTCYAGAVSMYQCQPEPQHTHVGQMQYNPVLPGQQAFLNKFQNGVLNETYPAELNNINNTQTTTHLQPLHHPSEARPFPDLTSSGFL", "conditions": "Potency"}, "[21]": {"target": "Heat shock protein HSP 90-alpha (Homo sapiens, UniProt P07900)", "type": "functional, organism-based"}, "[22]": {"target": "T8, ATP-dependent translocase ABCB1 (Homo sapiens, UniProt P08183)", "T8 sequence (P08183 whole entry)": "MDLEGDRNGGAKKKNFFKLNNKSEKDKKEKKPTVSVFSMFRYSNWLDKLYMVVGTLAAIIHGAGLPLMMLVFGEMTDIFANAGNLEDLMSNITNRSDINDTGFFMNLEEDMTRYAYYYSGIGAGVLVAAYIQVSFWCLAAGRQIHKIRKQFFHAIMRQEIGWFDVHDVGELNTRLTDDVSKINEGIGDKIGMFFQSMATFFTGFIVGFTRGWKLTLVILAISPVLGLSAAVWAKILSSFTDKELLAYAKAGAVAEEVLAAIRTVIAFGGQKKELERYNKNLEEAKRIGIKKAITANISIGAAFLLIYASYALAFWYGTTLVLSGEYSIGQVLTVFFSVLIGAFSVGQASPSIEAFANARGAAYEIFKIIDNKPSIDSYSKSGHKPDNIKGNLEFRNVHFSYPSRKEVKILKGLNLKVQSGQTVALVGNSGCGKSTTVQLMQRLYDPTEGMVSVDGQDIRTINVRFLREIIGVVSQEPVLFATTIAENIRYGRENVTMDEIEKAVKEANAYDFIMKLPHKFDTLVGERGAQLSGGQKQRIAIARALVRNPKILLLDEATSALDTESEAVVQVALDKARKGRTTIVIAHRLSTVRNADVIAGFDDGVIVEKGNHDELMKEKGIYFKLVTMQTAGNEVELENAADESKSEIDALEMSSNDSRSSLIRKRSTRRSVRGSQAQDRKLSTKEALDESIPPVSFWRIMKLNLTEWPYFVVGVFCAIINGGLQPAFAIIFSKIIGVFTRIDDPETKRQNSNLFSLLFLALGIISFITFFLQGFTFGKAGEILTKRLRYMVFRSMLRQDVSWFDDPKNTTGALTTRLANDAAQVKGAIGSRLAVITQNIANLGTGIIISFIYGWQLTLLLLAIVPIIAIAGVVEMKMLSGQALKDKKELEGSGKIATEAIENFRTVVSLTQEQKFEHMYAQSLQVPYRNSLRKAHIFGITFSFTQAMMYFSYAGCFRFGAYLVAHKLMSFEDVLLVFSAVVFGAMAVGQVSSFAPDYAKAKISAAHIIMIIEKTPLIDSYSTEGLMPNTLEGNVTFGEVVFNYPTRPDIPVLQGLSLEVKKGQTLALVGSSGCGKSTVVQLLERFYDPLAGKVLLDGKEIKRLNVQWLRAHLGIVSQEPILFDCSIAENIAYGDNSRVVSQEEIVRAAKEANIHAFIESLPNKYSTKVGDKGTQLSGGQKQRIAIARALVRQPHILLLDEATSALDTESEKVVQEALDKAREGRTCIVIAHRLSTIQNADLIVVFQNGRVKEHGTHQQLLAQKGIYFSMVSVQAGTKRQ", "experiment": "ABCB1 efflux inhibitor potency, dose response, Jurkat-DNR cells, JC-1, flow cytometry, set 2 (AID 504569);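 also: potency of pump inhibitors that raise cellular JC-1 green fluorescence up to the nicardipine level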", "type": "functional", "conditions": "read-out: EC50_MICROM_"}, "[23]": {"target": "T8, ATP-dependent translocase ABCB1", "experiment": "ABCG2 efflux pump inhibitor potency, dose response, Ig-MXP3 cells, JC-1, flow cytometry, set 2 (AID 504566);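 also: flow cytometry median green fluorescence of retained JC-1 dye; potency of efflux pump inhibition measured as rising substrate retention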", "type": "functional", "conditions": "read-out: EC50_MICROM_"}}, "note": "Activity calls are given as the source filed them."}
{"compound": "COc1cc2c3nnc(-c4ccc(F)cc4)c-3cn(Cc3ccc(C)cc3)c2cc1OC", "values": [{"measurement": "EC50", "setting": "[1]", "value": "10.4 µM (active)"}, {"measurement": "EC50", "setting": "[2]", "value": "2.2 µM (inconclusive)"}, {"measurement": "EC50", "setting": "BJ [3]", "value": "17.3 µM (active)"}, {"measurement": "IC50", "setting": "[4]", "value": "70 µM (inactive)"}, {"measurement": "EC50", "setting": "[5]", "value": "2.4 µM (active)"}, {"measurement": "EC50", "setting": "BJ [6]", "value": "5.16 µM (inconclusive)"}, {"measurement": "EC50", "setting": "[7]", "value": "1.1 µM (inconclusive)"}, {"measurement": "EC50", "setting": "BJ [8]", "value": "4.86 µM (active)"}]}
{"compound": "Cc1ccc(S(=O)(=O)N2C[C@H]3n4c(=O)ccc(=O)n4C[C@H](OC(=O)Nc4cccs4)[C@@]3(O)C2)cc1", "values": [{"measurement": "IC50", "setting": "[9]", "value": "14.6 µM (inactive)"}]}
{"compound": "COc1ccc(N2CCN(c3[nH]cnc4c5ccccc5nc3-4)CC2)cc1", "values": [{"measurement": "IC50", "setting": "[10]", "value": "5.54 µM (active)"}, {"measurement": "AC50", "setting": "HEK293", "value": "0.865 µM (active)"}, {"measurement": "IC50", "setting": "Protein Wnt-3a", "value": "1.14 µM (active)"}]}
{"compound": "CC(=O)Nc1cc(-c2cccc(C(=O)NCCN(C)C)c2)cn2c(-c3cccc(C(F)(F)F)c3)cnc12", "values": [{"measurement": "AC50", "setting": "Paired box protein Pax-8", "value": "11.5 µM (active)"}, {"measurement": "EC50", "setting": "Melanocortin receptor 4", "value": "> 89.2 µM (inactive)"}, {"measurement": "AC50", "setting": "[11]", "value": "3.93 µM (active)"}]}
{"compound": "COc1ccc(CNC(=O)c2cccc3c(-c4ccc(F)c(F)c4)coc23)cc1OC", "values": [{"measurement": "IC50", "setting": "[12]", "value": "4.63 µM (active)"}]}
{"compound": "Cc1cc(C(=O)NCc2ccccc2F)c2ccccc2n1", "values": [{"measurement": "IC50", "setting": "[13]", "value": "10.8 µM (active)"}, {"measurement": "IC50", "setting": "[14]", "value": "17.9 µM (active)"}]}
{"compound": "CN(C)C(CNC(=O)c1cc(-c2ccco2)nc2ccccc12)c1ccccc1", "note": "(configuration not stated)", "values": [{"measurement": "IC50", "setting": "[15]", "value": "6.25 µM (active)"}, {"measurement": "IC50", "setting": "[16]", "value": "25.9 µM (active)"}, {"measurement": "IC50", "setting": "[17]", "value": "2.75 µM (active)"}, {"measurement": "IC50", "setting": "[18]", "value": "11.2 µM (active)"}]}
{"compound": "CC(=O)N1CCN(c2ccc(OC[C@H]3CO[C@](Cn4ccnc4)(c4ccc(Cl)cc4Cl)O3)cc2)CC1", "note": "[KETOCONAZOLE]", "values": [{"measurement": "CC50", "setting": "[19]", "value": "> 40 µM (active)"}, {"measurement": "AC50", "setting": "[20]", "value": "44.7 µM (inconclusive)"}, {"measurement": "AC50", "setting": "[21]", "value": "0.435 µM (active)"}]}
{"compound": "O=C(c1ccoc1)N1CCN(c2cc(-c3ccccc3)nc3cc(-c4ccc(Br)cc4)nn23)CC1", "values": [{"measurement": "EC50", "setting": "[22]", "value": "1.06 µM (active)"}, {"measurement": "EC50", "setting": "[23]", "value": "0.6 µM (active)"}]}
